The values that follow come from PubChem BioAssay (NCI).

Among the test systems are SN12C renal; HOP-62 NSCLC; PC-3 prostate; DU-145 prostate; NCI/ADR-RES ovarian; ACHN renal; SNB-19 CNS; HS 578T breast.
Common to all, as to assay: NCI-60 cell line screen, 48 h

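How tested: cells in 96-well plates exposed to compound for 48 hours at five concentrations. Definition used: TGI = concentration required for complete inhibition of growth.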

As to `COC(=O)C1(Cc2ccccc2)Cc2ccc3c(c2C1=O)CCC3` (stereo unspecified), the TGI with SN12C renal, with HOP-62 NSCLC, in the assay with PC-3 prostate, in the assay on DU-145 prostate, in the assay on NCI/ADR-RES ovarian and in the assay with ACHN renal was greater than 100 µM throughout. Moreover, the TGI is greater than 100 µM in the assay with SNB-19 CNS and greater than 84.3 µM in the assay with HS 578T breast.
With `COc1ccccc1Cn1nc(OC)c2cc([N+](=O)[O-])ccc21`, the TGI in the assay with SN12C renal is greater than 100 µM; with HOP-62 NSCLC, 20.3 µM; with PC-3 prostate, greater than 100 µM; with DU-145 prostate, greater than 100 µM; in the assay with NCI/ADR-RES ovarian it was greater than 100 µM; with ACHN renal, greater than 100 µM. Also, the TGI in the assay with SNB-19 CNS is 41.5 µM; in the assay with HS 578T breast, greater than 84.7 µM.
Regarding `Cc1[nH]c(=O)nc(NCCNCCO)c1C(=O)Nc1c2ccccc2nc2ccccc12`, the TGI in the assay with SN12C renal, with HOP-62 NSCLC, with PC-3 prostate, with DU-145 prostate, in the assay on NCI/ADR-RES ovarian and in the assay on ACHN renal was greater than 100 µM in each case. Further, in the assay on SNB-19 CNS, the TGI was greater than 100 µM.
`Oc1ccc(Cn2c(-c3ccc(O)c(O)c3)nc3ccccc32)cc1O`: the TGI was 40.6 µM in the assay on SN12C renal; 38 µM in the assay on HOP-62 NSCLC; greater than 100 µM in the assay on PC-3 prostate; 66.9 µM in the assay on DU-145 prostate; greater than 100 µM in the assay on NCI/ADR-RES ovarian; 60.2 µM with ACHN renal. Besides, the TGI is 83.4 µM in the assay on SNB-19 CNS and 35.2 µM in the assay on HS 578T breast.
Regarding `COc1nc2sc3c(c2c(=O)n1CCCSSCCCn1c(OC)nc2sc4c(c2c1=O)CCCC4)CCCC3`, the TGI in the assay on SN12C renal, in the assay on HOP-62 NSCLC, in the assay on PC-3 prostate, in the assay on DU-145 prostate, in the assay on NCI/ADR-RES ovarian and with ACHN renal was greater than 100 µM throughout. In the assay with SNB-19 CNS, the TGI was greater than 100 µM.
In the case of `CCOC(=O)CCC(NC(=O)c1ccc(OCc2nc3ccccc3n3cccc23)cc1)C(=O)OCC` (stereo unspecified), the TGI in the assay with SN12C renal, with HOP-62 NSCLC, in the assay with PC-3 prostate, with DU-145 prostate, in the assay with NCI/ADR-RES ovarian and with ACHN renal was greater than 100 µM in each case. For the same compound, the TGI in the assay with SNB-19 CNS and in the assay on HS 578T breast was greater than 100 µM throughout.
On to `O=C(/C=C/c1ccco1)CC(=O)/C=C/c1ccco1`, for which the TGI with SN12C renal came out at 17.5 µM; in the assay with HOP-62 NSCLC, 17.3 µM; in the assay with NCI/ADR-RES ovarian, 21.7 µM; in the assay with ACHN renal it was 21 µM; in the assay on SNB-19 CNS, 31.4 µM; with HS 578T breast it was 26.8 µM.
As to `CCOC(=O)c1[nH]c2ccccc2c1C(=O)C[C@H](NC(=O)C(F)(F)F)C(=O)OC`, the TGI with SN12C renal, in the assay on HOP-62 NSCLC, with PC-3 prostate, in the assay with DU-145 prostate, in the assay on NCI/ADR-RES ovarian and in the assay on ACHN renal was greater than 100 µM each time. Moreover, the TGI with SNB-19 CNS and in the assay with HS 578T breast was greater than 100 µM each time.
Consider `N/N=C1/CCCc2nonc21`, for which the TGI in the assay with SN12C renal, in the assay on HOP-62 NSCLC, in the assay on PC-3 prostate, in the assay on DU-145 prostate, with NCI/ADR-RES ovarian and in the assay with ACHN renal was greater than 100 µM each time. This compound also returned a TGI in the assay with HS 578T breast greater than 100 µM.
Turning to `CCN(CC)CCCNc1nc2ccccc2c2[nH]c3ccc(OC)cc3c12`, the TGI in the assay on SN12C renal is 7.1 µM; in the assay with HOP-62 NSCLC it was 3 µM; in the assay with PC-3 prostate, 2.73 µM; with DU-145 prostate, 8.44 µM; in the assay on NCI/ADR-RES ovarian, 2.92 µM; in the assay on ACHN renal, greater than 10 µM. The TGI in the assay on SNB-19 CNS turned out to be 4.25 µM; with HS 578T breast, 3.81 µM.
As for `O=[N+]([O-])c1cc(-[n+]2cc([O-])on2)ccc1F`, the TGI in the assay with SN12C renal was determined as 31.2 µM; in the assay with HOP-62 NSCLC, 30.3 µM; with PC-3 prostate, 35.1 µM; with DU-145 prostate, 25.4 µM; with NCI/ADR-RES ovarian it was 52 µM; in the assay on ACHN renal it was 30.7 µM. Besides, the TGI was found to be 21.3 µM in the assay on SNB-19 CNS and 61.5 µM with HS 578T breast.
For the compound `N#CC(c1cc2c(cc1Br)OCO2)N1CCOCC1` (stereo unspecified), the TGI in the assay with SN12C renal was greater than 100 µM; in the assay on HOP-62 NSCLC it was greater than 100 µM; with PC-3 prostate it was 71.2 µM; in the assay on DU-145 prostate it was greater than 100 µM; with NCI/ADR-RES ovarian it was greater than 100 µM; in the assay with ACHN renal it was greater than 100 µM. Further, the TGI in the assay on SNB-19 CNS was greater than 100 µM; in the assay on HS 578T breast it was 83.8 µM.
In the case of `OCCN(CCO)c1ccc2c(c1)Cc1ccccc1-2`, the TGI in the assay with SN12C renal, with HOP-62 NSCLC, with PC-3 prostate, in the assay with DU-145 prostate, with NCI/ADR-RES ovarian and in the assay on ACHN renal was greater than 100 µM each time. In addition, the TGI with SNB-19 CNS and with HS 578T breast was greater than 100 µM in each case.
Regarding `CN(C)c1nc(-c2ccccc2)c(C(=O)c2c[nH]c3ccccc23)s1`, the TGI in the assay with SN12C renal, in the assay on HOP-62 NSCLC, in the assay with PC-3 prostate, with DU-145 prostate, in the assay with NCI/ADR-RES ovarian and in the assay on ACHN renal was greater than 100 µM in each case. Also, the values for the TGI with SNB-19 CNS and in the assay with HS 578T breast were greater than 100 µM and greater than 28.3 µM, respectively.
With `CCCCCCCCCCCCCCCCCCOCC(CO[P+](=O)O)OCCCCCCCCCCCCCCCCCC` (stereo unspecified), the TGI in the assay on SN12C renal, in the assay with PC-3 prostate, in the assay with DU-145 prostate, in the assay on NCI/ADR-RES ovarian, in the assay with SNB-19 CNS and in the assay with HS 578T breast was greater than 50 µM in each case.
With `FC(F)(Sc1ccccc1)c1nc2ccccc2o1`, the TGI in the assay on SN12C renal, in the assay on HOP-62 NSCLC, in the assay on PC-3 prostate, with DU-145 prostate, in the assay with NCI/ADR-RES ovarian and in the assay with ACHN renal was greater than 100 µM in each case.
As to `O=C(OCC1OC(c2nn[nH]n2)C(OC(=O)c2ccccc2)C1OC(=O)c1ccccc1)c1ccccc1` (stereo unspecified), the TGI in the assay on SN12C renal, in the assay with HOP-62 NSCLC, with PC-3 prostate, with DU-145 prostate, in the assay on NCI/ADR-RES ovarian and in the assay with ACHN renal was greater than 100 µM in each case. Further, the TGI with SNB-19 CNS is greater than 100 µM.
